Experimental data taken from US20250108038A1 (priority 2023, published 2025).

Key:
[1] = biological target: CYP2C9 (Homo sapiens, UniProt P11712); experiment: in vitro; details: both, pH 7.4
[2] = biological target: CYP2C19 (Homo sapiens, UniProt P33261); experiment: in vitro; details: both, pH 7.4
[3] = tested on: C57BL/6 mice; experiment: SmartCage locomotor activity monitoring; type: in vivo, mouse; details: 0.3, 1.0, 3.0 and 10 mg/kg, IP, 24 h
[4] = tested on: Wistar rats; experiment: Five Choice Serial Reaction Time Task, standard version (STD), repeated administration; type: in vivo, Wistar rat; design: Latency (Correct) / Latency (Incorrect): unit not given here; details: for Latency (Correct) / Latency (Incorrect) / Magazine Head Entries / Omissions / Reward Latency / Trials Completed: STD
From the text: (§1) The behavioral tasks utilized were three versions of the rat Five Choice Serial Reaction Time Task (5C-SRTT), the standard version of the task (STD) with a fixed stimulus duration and a fixed intertrial interval, the variable stimulus duration (vSD) and the variable intertrial interval (vITI) version. The principal readout parameters in each task were the % Hit and the % correct choices (measures of sustained attention) and three measures of inhibitory response control (premature, perseverative, and timeout responses), although a number of additional outcome measures were obtained (see under Methods and Results below).
(§2) Twenty-four adult (approx. 10 months old) male Wistar rats (Envigo, Inc, Indianapolis, IN) were used in the study. […] Subjects were double housed in polycarbonate cages (45×30×18 cm) with corncob bedding in a vivarium of constant temperature (21-23° C.) and humidity (40-50%). […] All behavioral testing was performed during the light portion (9 a.m.-5 p.m.) of the light/dark cycle (Monday thru Friday). Animals were cared for in accordance with the Guide for the Care and Use of Laboratory Animals (U.S. National Institutes of Health) and the experimental protocols were approved by the Institutional Animal Care and Use Committee at Augusta University (Protocol #2010-0044).
(§3) The 5C-SRTT procedure (reviewed, Robbins, 2002. Psychopharmacology (Berl); 163(3-4):362-80) was conducted as we have described previously (Terry et al., 2014, Neurotoxicology and Teratology 44:18-29, 2014; Callahan et al., 2020, Neuropharmacology. August 15; 173:107994). […] Animals were trained in eight automated 5C-SRTT operant chambers (Med Associates, St. Albans, VT, USA), controlled by MedPC software (Med Associates). Briefly, each operant chamber was equipped with 5 apertures containing a photocell beam to detect nose pokes and a lamp (2.8 W) that could be illuminated randomly at varying durations. Food pellets (45 mg chow pellet, BioServ, Frenchtown, NJ, USA) were delivered automatically to a magazine, located on the opposite wall to the nose pokes, that was also equipped with a light that turned on to indicate that a pellet had been dispensed. The house-light remained on for the entire session unless an error or omission occurred. Training sessions began with the delivery of a food reward and retrieval triggered the first trial. […] Sessions ended when 40 minutes had lapsed or 100 trials had been completed.
(§4) For this study, subjects were re-trained 5 days per week until they re-established a stable performance criteria with a fixed (1.0 sec) stimulus duration and a fixed ITI (5 sec) of 70-75% accuracy, <20% omissions and completion of all 100 trials for 5 consecutive days. Upon meeting these performance criteria animals were trained for one additional week and two groups of subjects (N=12) were assembled and balanced according to their performance accuracy, specifically the % Hit evaluation, which takes into account correct responses as well as all incorrect responses including the number of omissions. […] The vSD version of the task increases the attentional load while the vITI increases impulsivity-like behavior. The following outcome measures and behavioral domains were assessed: % Hit and % correct=sustained attention; omissions=attention/motivation; premature responses=impulsivity; perseverative responses=compulsivity; timeout responses=cognitive inflexibility; magazine head entries=appetitive motivation and compulsivity-like behavior; response latencies=information processing speed and/or motivation. For the STD version of the task, the stimulus duration (SD) was fixed at 1.0 sec and the ITI was fixed at 5 sec. In the vSD version of the task the following stimulus durations were presented in a pseudorandom manner: 0.3, 0.6, and 0.9 sec. In the vITI version, 2.5, 5.0, and 10.0 sec ITIs were employed in a pseudorandom manner. […]

[5] = biological target: CYP2D6 (Homo sapiens, UniProt P10635)
Sequence of CYP2D6 (P10635 whole entry): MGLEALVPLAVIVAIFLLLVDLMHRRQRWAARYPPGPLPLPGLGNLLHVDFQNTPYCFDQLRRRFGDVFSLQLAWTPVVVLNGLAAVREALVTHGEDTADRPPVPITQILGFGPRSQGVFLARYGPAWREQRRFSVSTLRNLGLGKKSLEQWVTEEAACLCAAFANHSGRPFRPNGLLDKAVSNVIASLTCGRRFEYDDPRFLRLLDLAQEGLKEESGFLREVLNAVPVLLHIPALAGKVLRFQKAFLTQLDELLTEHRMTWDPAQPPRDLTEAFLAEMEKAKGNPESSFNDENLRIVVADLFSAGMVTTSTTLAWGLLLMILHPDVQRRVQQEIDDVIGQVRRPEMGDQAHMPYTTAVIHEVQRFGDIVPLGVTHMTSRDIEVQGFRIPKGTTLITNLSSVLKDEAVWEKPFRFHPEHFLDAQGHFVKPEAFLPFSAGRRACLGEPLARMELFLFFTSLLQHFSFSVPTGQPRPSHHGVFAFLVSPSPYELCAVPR

[6] = tested on: Wistar rats; experiment: Five Choice Serial Reaction Time Task, vSD version, repeated administration; type: in vivo, Wistar rat; design: Latency (Correct) / Latency (Incorrect): unit not given here; details: for Latency (Correct) / Latency (Incorrect) / Magazine Head Entries / Omissions / Reward Latency / Trials Completed: vSD, mean ± SEM
From the text: as §1, §2, §3, §4

[7] = Group 1, 0.1 mg/kg, Drug Exp period, mean ± SEM
[8] = Group 1, 0.1 mg/kg, Post-Drug Exp (vehicle washout) period, mean ± SEM
[9] = Group 2, 0.3 mg/kg, Drug Exp period, mean ± SEM
[10] = Group 2, 0.3 mg/kg, Post-Drug Exp (vehicle washout) period, mean ± SEM
[11] = Group 1, 0.1 mg/kg, Drug Exp period
[12] = Group 1, 0.1 mg/kg, Post-Drug Exp (vehicle washout) period
[13] = Group 2, 0.3 mg/kg, Drug Exp period
[14] = Group 2, 0.3 mg/kg, Post-Drug Exp (vehicle washout) period

Sequence of CYP2C19 (P33261 whole entry): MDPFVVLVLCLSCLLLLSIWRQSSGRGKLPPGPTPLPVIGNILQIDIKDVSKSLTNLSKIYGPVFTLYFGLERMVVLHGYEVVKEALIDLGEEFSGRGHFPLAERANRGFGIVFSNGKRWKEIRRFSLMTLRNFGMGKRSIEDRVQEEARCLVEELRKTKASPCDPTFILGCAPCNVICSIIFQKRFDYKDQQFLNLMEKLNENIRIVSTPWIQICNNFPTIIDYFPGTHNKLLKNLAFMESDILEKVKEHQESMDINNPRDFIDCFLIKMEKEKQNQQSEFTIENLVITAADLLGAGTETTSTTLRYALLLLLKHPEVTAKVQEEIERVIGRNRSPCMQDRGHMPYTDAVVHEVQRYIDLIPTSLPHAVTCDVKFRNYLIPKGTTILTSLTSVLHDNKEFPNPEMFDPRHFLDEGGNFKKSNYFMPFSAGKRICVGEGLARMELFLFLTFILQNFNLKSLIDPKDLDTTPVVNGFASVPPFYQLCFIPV
Sequence of CYP2C9 (P11712 whole entry): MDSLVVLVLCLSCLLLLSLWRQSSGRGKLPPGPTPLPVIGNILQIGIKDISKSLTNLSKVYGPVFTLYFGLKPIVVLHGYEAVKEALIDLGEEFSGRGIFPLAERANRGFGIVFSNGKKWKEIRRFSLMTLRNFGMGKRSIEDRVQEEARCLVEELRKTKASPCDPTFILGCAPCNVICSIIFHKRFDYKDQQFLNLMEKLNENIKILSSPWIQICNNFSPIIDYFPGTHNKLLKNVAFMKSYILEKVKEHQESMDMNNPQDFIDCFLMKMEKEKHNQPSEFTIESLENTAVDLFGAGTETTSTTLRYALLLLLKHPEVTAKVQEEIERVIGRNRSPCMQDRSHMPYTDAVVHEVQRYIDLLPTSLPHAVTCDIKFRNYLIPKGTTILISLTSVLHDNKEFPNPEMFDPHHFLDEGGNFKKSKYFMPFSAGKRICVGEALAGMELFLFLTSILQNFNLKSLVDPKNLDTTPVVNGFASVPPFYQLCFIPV

Molecule `OC1(c2ccc(Cl)cc2)c2ccccc2C2=NCCN21` (stereo not shown) [Compound A, 5-(4-chlorophenyl)-2,3-dihydroimidazo[1,2-b]isoindol-5-ol, reference compound] has an inhibition at 10 µM [1] of 10.2% and an inhibition at 10 µM [2] of 16.5%.

For `Clc1ccc(C2(OCC3OCCO3)c3ccccc3C3=NCCN32)cc1` (stereo not shown) [Compound I-19], the “home cage activity (activity, rearing, velocity, distance)” value [3] was “no significant effect on the diurnal or nocturnal activity measures”, the “Latency (Correct)” value [4, 7] was 0.94 and the “Latency (Incorrect)” value [4, 7] was 2.15. For the same molecule, the “Magazine Head Entries” value [4, 7] was 150.65 ± 9.46, the Omissions [4, 7] was 9.43 and the “Reward Latency” value [4, 7] was 3.53. The “Trials Completed” value [4, 7] was 96.99 ± 2.12, the “Latency (Correct)” value [4, 8] was 0.87 ± 0.03 and the “Latency (Incorrect)” value [4, 8] was 1.86 ± 0.09. The “Magazine Head Entries” value [4, 8] was 168.06 ± 13.60, the Omissions [4, 8] was 4.46 ± 0.81 and the “Reward Latency” value [4, 8] was 2.64. The “Trials Completed” value [4, 8] was 97.65 ± 2.23, the “Latency (Correct)” value [4, 9] was 0.92 and the “Latency (Incorrect)” value [4, 9] was 2.28. The “Magazine Head Entries” value [4, 9] was 183.89 ± 32.19, the Omissions [4, 9] was 8.10 ± 2.32^+ and the “Reward Latency” value [4, 9] was 4.08. For the same molecule, the “Trials Completed” value [4, 9] was 98.44 ± 0.95, the “Latency (Correct)” value [4, 10] was 0.78 and the “Latency (Incorrect)” value [4, 10] was 1.61 ± 0.07. For the same molecule, the “Magazine Head Entries” value [4, 10] was 211.72 ± 32.77, the Omissions [4, 10] was 3.26 ± 0.95 and the “Reward Latency” value [4, 10] was 2.27. For the same molecule, the “Trials Completed” value [4, 10] was 100.00, the “% Hit and % correct” value ([4]; repeated 0.1 and 0.3 mg/kg IP) was “did not significantly affect either the % Hit or the % correct” and the premature responses ([4]; repeated 0.1 and 0.3 mg/kg IP) was “reduced the number of premature responses compared to pre- and post-drug conditions”. For the same molecule, the Omissions ([4]; repeated 0.1 and 0.3 mg/kg IP, vSD and vITI versions) was “modest increases in the number of omissions”, the “Inhibition at Highest Test Article Concentration” value ([5]; 2D6, Dextromethorphan, at 50 μM) was 84.3 at 50 μM % and the IC50 ([5]; microsomes) was 8.7 µM. For the same molecule, the “% Hit” value ([6]; repeated 0.1 and 0.3 mg/kg IP) was “modest decrease in accuracy that was limited to the 0.6 sec stimulus duration”, the premature responses ([6]; repeated 0.1 and 0.3 mg/kg IP) was “reduced the number of premature responses compared to post-drug conditions” and the “Latency (Correct)” value [6, 11] was 0.99. For the same molecule, the “Latency (Incorrect)” value [6, 11] was 2.17, the “Magazine Head Entries” value [6, 11] was 168.21 ± 10.60 and the Omissions [6, 11] was 15.79. For the same molecule, the “Reward Latency” value [6, 11] was 2.44, the “Trials Completed” value [6, 11] was 94.17 ± 2.75 and the “Latency (Correct)” value [6, 12] was 0.86 ± 0.03. For the same molecule, the “Latency (Incorrect)” value [6, 12] was 1.90 ± 0.09, the “Magazine Head Entries” value [6, 12] was 189.79 ± 14.47 and the Omissions [6, 12] was 8.12 ± 1.63. For the same molecule, the “Reward Latency” value [6, 12] was 2.13, the “Trials Completed” value [6, 12] was 97.79 ± 2.21 and the “Latency (Correct)” value [6, 13] was 0.91. For the same molecule, the “Latency (Incorrect)” value [6, 13] was 2.21, the “Magazine Head Entries” value [6, 13] was 208.46 ± 28.88 and the Omissions [6, 13] was 14.08. The “Reward Latency” value [6, 13] was 2.99, the “Trials Completed” value [6, 13] was 98.29 ± 0.84 and the “Latency (Correct)” value [6, 14] was 0.76. The “Latency (Incorrect)” value [6, 14] was 1.65 ± 0.08, the “Magazine Head Entries” value [6, 14] was 245.17 ± 33.79 and the Omissions [6, 14] was 5.79 ± 1.35. The “Reward Latency” value [6, 14] was 2.11 and the “Trials Completed” value [6, 14] was 100.00.
